This is an account of results in patent US20120277161A1, “INHIBITION OF MULTIPLE CELL ACTIVATION PATHWAYS” (INTER-K PTY LIMITED, priority 2009, published 2012).

The subject of experiment [1] is HL60 leukemic cells. As to the kind of experiment: MTT proliferation, HL60 cells. It is filed as cell-based. Particulars: MTT assay, data not shown; read-out: IC50 inhibition of proliferation of HL60 leukemic cells.
Experiment [2] relates to DU145 prostate cancer cells. Put plainly: MTT growth/proliferation, DU145 cells. It is filed as cell-based. Particulars: 48 hours. On the procedure:
(§1) In this study, the cells were incubated in the presence of the dendrimer for 48 hours. Cell lines were maintained at 37° C. in a humid atmosphere containing 5% CO2. Cells were passaged at pre-confluent densities using a solution containing 0.05% trypsin and 0.5 mM EDTA (Invitrogen).

Experiment [3] addresses PKB alpha (Homo sapiens, UniProt P31749). As to the kind of experiment: PKB kinase activity assay. The class given is biochemical. The conditions noted are these: 20 μM, relative to control.
Experiment [4] deals with mTOR (Homo sapiens, UniProt P42345). As to the kind of experiment: mTOR activity. The class given is biochemical. The conditions noted are these: 20 μM, data not shown.
Experiment [5] relates to HT-29 human colon cancer cells. As to the kind of experiment: Apoptosis assay (FITC Annexin V / PI, FACS). It is filed as cell-based. Particulars: 10 μM, 4 hours; FIG. 11. On the procedure: The cells were harvested by trypsinisation, washed twice in HBSS and counted counted using Trypan Blue staining. The cells were then re-suspended in the appropriate culture medium to a concentration of 1×10^6 cells/mL. […] The cells were allowed to attach to the plate for 1 h. […] Cells were then harvested by trypsinisation, washed twice in cold phosphate buffered saline (PBS) and then resuspended in 1× binding buffer. 100 μL of the cell suspensions containing 1×10^5 cells were transferred to a 5 mL plastic tube. […] Three controls were also analysed: unstained cells, cells stained only with Annexin V and cells stained only with PI. The data was presented as the percentage of cells being either Annexin V positive only (excluding PI positive cells), PI positive (total) or Annexin V and PI positive (double stain).

The subject of experiment [6] is JNK. Put plainly: JNK activity. The class given is biochemical. The conditions noted are these: 20 μM, data not shown.
For experiment [7], the target named is human Lyn (Homo sapiens, UniProt P07948). As to the kind of experiment: Lyn kinase activity assay. The class given is biochemical. The conditions noted are these: 20 μM. On the procedure: In a final reaction volume of 25 μl, human Lyn is incubated with the RSKAKNPLYR peptide (SEQ ID No: 6) in 50 mM Tris buffer pH 7.5, 0.1 mM EGTA, 0.1 mM Na3VO4, 1% mercaptoethanol, 0.1 mg/ml poly(Glu,Tyr) 4:1, 10 mM Mg acetate and [γ-33P-ATP] (specific activity approx. 500 cpm/pmol). The reaction was initiated by the addition of the MgATP mix, incubated for 40 minutes at room temperature prior to being stopped and kinase activity assessed by scintillation counting as per the protocol described for c-Src described in Example 1.1.
human Lyn, sequence (P07948 whole entry): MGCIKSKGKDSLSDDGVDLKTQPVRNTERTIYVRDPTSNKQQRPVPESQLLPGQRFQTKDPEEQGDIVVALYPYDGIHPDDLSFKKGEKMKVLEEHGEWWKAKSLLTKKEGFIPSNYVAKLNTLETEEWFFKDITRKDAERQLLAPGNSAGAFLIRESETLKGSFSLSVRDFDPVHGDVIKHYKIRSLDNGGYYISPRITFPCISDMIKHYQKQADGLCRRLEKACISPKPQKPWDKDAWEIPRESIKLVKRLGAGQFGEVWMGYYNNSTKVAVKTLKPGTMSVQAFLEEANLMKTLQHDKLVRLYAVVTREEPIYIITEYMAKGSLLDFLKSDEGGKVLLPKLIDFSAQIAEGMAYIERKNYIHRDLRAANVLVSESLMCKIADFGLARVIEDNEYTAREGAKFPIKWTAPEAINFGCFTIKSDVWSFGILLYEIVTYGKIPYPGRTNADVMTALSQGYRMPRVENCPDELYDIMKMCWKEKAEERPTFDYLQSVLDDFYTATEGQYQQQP

For experiment [8], the target named is human Yes (Homo sapiens, UniProt P07947). As to the kind of experiment: Yes kinase activity assay. It is filed as biochemical. The conditions noted are these: 20 μM. The method, then:
In a final reaction volume of 25 μl, human Yes is incubated with the RSKAKNPLYR peptide (SEQ ID No: 6) in 8 mM MOPS buffer pH 7.0, 0.2 mM EDTA, 0.1 mg/ml poly(Glu,Tyr) 4:1, 10 mM Mg acetate and [γ-33P-ATP] (specific activity approx. 500 cpm/pmol). The reaction is initiated by the addition of the MgATP mix, incubated for 40 minutes at room temperature prior to being stopped and kinase activity assessed by scintillation counting again as per the protocol described for c-Src in Example 1.1.

The test system of experiment [9] is MKN45 gastric carcinoma cells. As to the kind of experiment: MTT growth/proliferation, MKN45 cells. Particulars: 48 hours. It is filed as cell-based. The method, then:
as §1

Experiment [10] concerns the target c-SRC (h) (Homo sapiens, UniProt P12931). As to the kind of experiment: c-Src kinase activity assay (cell-free, 33P-ATP). It is filed as biochemical. On the procedure: In a final reaction volume of 25 μL, c-SRC (h) (5-10 mU) is incubated with 8 mM MOPS pH 7.0, 0.2 mM EDTA, 250 μM KVEKIGEGTYGVVYK (SEQ ID No. 19) (Cdc2 peptide), 10 mM MgAcetate and [γ-33P-ATP] (specific activity approx. 500 cpm/pmol, concentration as required). The reaction is initiated by the addition of the MgATP mix. After incubation for 40 minutes at room temperature, the reaction is stopped by the addition of 5 μL of a 3% phosphoric acid solution. 10 μL of the reaction is then spotted onto a P30 filtermat and washed three times for 5 minutes in 75 mM phosphoric acid and once in methanol prior to drying and scintillation counting.

The test system of experiment [11] is MCF-7 breast cancer cells. Put plainly: MTT growth/proliferation, MCF-7 cells. Particulars: 48 hours. The class given is cell-based. On the procedure:
as §1

For experiment [12], the target named is PI3K gamma (Homo sapiens, UniProt P48736). As to the kind of experiment: PI3K HTRF activity assay. The class given is biochemical. Particulars: final concentration 50 μM. The method, then:
In a final reaction volume of 20 μL, the test PI3K is incubated in assay buffer containing 10 μM phosphatidylinositol-4,5-bisphosphate and MgATP. The reaction is initiated by the addition of the MgATP mix. After incubation for 30 minutes at room temperature, the reaction is stopped by the addition of 5 μL of stop solution containing EDTA and biotinylated phosphatidylinositol-3,4,5-trisphosphate. Finally, 5 μL of detection buffer is added (containing europium-labelled anti-GST monoclonal antibody, GST-tagged GRP1 PH domain and streptavidin-allophycocyanin). The test plate is then read in time-resolved fluorescence mode and the homogenous time-resolved fluorescence (HTRF) signal is determined according to the formula HTRF=10000×(Em665 nm/Em620 nm).
Background: TR-FRET usually uses a lanthanide donor and a delayed reading to cut background.

human Yes, sequence (P07947 whole entry): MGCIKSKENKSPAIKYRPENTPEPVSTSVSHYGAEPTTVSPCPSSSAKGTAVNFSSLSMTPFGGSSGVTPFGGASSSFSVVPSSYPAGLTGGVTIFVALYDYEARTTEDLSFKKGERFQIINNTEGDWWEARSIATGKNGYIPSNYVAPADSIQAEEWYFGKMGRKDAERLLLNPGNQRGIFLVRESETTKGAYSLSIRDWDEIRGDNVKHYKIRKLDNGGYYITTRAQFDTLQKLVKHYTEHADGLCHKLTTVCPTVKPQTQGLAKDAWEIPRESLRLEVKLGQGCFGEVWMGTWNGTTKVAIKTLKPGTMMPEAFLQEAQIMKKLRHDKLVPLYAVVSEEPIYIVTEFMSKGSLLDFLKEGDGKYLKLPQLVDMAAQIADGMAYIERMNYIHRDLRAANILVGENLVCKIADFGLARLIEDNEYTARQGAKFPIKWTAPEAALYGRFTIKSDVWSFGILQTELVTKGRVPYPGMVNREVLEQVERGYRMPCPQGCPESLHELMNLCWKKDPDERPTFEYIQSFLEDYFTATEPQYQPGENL
PI3K gamma, sequence (P48736 whole entry, species assumed, the tested form may be a part): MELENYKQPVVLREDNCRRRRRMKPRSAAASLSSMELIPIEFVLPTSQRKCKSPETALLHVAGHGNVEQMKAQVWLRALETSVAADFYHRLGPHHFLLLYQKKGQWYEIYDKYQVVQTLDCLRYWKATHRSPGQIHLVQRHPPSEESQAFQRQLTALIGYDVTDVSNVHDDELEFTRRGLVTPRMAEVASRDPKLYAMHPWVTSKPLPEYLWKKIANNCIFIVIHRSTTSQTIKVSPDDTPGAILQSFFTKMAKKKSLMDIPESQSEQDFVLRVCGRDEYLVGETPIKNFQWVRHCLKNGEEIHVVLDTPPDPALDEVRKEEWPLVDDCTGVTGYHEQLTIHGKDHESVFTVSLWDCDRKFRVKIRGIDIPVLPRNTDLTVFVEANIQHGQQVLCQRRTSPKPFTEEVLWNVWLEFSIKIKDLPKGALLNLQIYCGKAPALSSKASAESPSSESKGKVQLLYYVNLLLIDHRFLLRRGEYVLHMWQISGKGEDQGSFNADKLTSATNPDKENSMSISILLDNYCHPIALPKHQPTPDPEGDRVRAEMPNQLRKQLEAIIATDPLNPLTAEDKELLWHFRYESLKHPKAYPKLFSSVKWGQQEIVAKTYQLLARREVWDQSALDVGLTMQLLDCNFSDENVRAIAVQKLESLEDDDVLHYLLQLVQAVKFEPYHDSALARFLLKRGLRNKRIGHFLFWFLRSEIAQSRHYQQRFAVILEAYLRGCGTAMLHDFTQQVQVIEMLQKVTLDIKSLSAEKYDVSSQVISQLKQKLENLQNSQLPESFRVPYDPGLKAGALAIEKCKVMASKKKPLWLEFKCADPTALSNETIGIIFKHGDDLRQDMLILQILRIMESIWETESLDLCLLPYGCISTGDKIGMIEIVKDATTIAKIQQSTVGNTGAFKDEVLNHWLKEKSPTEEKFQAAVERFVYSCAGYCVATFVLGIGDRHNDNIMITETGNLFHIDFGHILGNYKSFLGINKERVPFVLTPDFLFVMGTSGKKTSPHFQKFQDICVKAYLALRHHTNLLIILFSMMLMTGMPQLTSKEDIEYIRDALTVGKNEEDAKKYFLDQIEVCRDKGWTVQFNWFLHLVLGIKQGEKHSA
PKB alpha, sequence (P31749 whole entry): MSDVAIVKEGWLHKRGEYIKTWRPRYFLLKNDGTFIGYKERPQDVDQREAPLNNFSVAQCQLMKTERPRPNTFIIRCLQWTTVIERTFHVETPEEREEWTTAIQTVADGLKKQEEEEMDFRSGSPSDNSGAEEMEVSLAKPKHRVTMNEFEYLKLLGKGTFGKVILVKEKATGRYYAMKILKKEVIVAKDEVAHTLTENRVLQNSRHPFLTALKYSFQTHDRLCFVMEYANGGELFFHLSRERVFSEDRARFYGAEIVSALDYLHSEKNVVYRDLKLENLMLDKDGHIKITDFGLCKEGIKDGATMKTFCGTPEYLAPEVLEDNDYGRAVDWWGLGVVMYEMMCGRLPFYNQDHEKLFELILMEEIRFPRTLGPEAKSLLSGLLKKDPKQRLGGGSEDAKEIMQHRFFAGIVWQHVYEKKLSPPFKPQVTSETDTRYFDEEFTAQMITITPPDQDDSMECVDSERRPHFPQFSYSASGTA

“Dend 10-10(4) whose RSKAKNPLYR peptides are entirely D-amino acids and pegylated with two ethylene glycol units [Dend 10-10(4)DP]”: in [1], the IC50 came to 2000 nM. Moreover, the “inhibition of growth/proliferation of DU145 cells” value in [2] was “inhibited growth/proliferation”. The “% Kinase inhibition PKB alpha” value in experiment [3] stood at 29%. In addition, the “effect on activity of mTOR” value in [4] is reported as “without any effect”. For the same compound, the “apoptosis in HT-29 cells” value in experiment [5] is given as “substantial level of apoptosis”. Moreover, the “effect on activity of JNK” value in experiment [6] is listed as “without any effect”. In addition, the “inhibition of the activity of c-Lyn relative to controls” value in [7] was 96%. In addition, in experiment [8], the “inhibition of the activity of c-Yes relative to controls” value was determined as 99%. Besides, the “inhibition of growth/proliferation of MKN45 cells” value in [9] is “inhibited growth/proliferation”. The “inhibition of c-Src activity compared to peptide RSKAKNPLYR alone” value in experiment [10] was “no increase in the inhibition of c-Src activity”. Moreover, the “inhibition of growth/proliferation of MCF-7 cells” value in [11] was “inhibited growth/proliferation”.

With `CC(C)C[C@H](NC(=O)[C@@H]1CCCN1C(=O)[C@H](CC(N)=O)NC(=O)[C@H](CCCCN)NC(=O)[C@H](C)NC(=O)[C@H](CCCCN)NC(=O)[C@H](CO)NC(=O)[C@@H](N)CCCNC(=N)N)C(=O)N[C@@H](Cc1ccc(O)cc1)C(=O)N[C@@H](CCCNC(=N)N)C(=O)NCCCC[C@H](NC(=O)[C@H](CCCCNC(=O)[C@H](CCCCNC(=O)[C@H](CCCNC(=N)N)NC(=O)[C@H](Cc1ccc(O)cc1)NC(=O)[C@H](CC(C)C)NC(=O)[C@@H]1CCCN1C(=O)[C@H](CC(N)=O)NC(=O)[C@H](CCCCN)NC(=O)[C@H](C)NC(=O)[C@H](CCCCN)NC(=O)[C@H](CO)NC(=O)[C@@H](N)CCCNC(=N)N)NC(=O)[C@H](CCCNC(=N)N)NC(=O)[C@H](Cc1ccc(O)cc1)NC(=O)[C@H](CC(C)C)NC(=O)[C@@H]1CCCN1C(=O)[C@H](CC(N)=O)NC(=O)[C@H](CCCCN)NC(=O)[C@H](C)NC(=O)[C@H](CCCCN)NC(=O)[C@H](CO)NC(=O)[C@@H](N)CCCNC(=N)N)NC(=O)[C@H](CCCCNC(=O)[C@H](CCCNC(=N)N)NC(=O)[C@H](Cc1ccc(O)cc1)NC(=O)[C@H](CC(C)C)NC(=O)[C@@H]1CCCN1C(=O)[C@H](CC(N)=O)NC(=O)[C@H](CCCCN)NC(=O)[C@H](C)NC(=O)[C@H](CCCCN)NC(=O)[C@H](CO)NC(=O)[C@@H](N)CCCNC(=N)N)NC(=O)[C@H](CCCNC(=N)N)NC(=O)[C@H](Cc1ccc(O)cc1)NC(=O)[C@H](CC(C)C)NC(=O)[C@@H]1CCCN1C(=O)[C@H](CC(N)=O)NC(=O)[C@H](CCCCN)NC(=O)[C@H](C)NC(=O)[C@H](CCCCN)NC(=O)[C@H](CO)NC(=O)[C@@H](N)CCCNC(=N)N)C(=O)NCCCC[C@H](NC(=O)[C@H](CCCCNC(=O)[C@H](CCCNC(=N)N)NC(=O)[C@H](Cc1ccc(O)cc1)NC(=O)[C@H](CC(C)C)NC(=O)[C@@H]1CCCN1C(=O)[C@H](CC(N)=O)NC(=O)[C@H](CCCCN)NC(=O)[C@H](C)NC(=O)[C@H](CCCCN)NC(=O)[C@H](CO)NC(=O)[C@@H](N)CCCNC(=N)N)NC(=O)[C@H](CCCCNC(=O)[C@H](CCCCNC(=O)[C@H](CCCNC(=N)N)NC(=O)[C@H](Cc1ccc(O)cc1)NC(=O)[C@H](CC(C)C)NC(=O)[C@@H]1CCCN1C(=O)[C@H](CC(N)=O)NC(=O)[C@H](CCCCN)NC(=O)[C@H](C)NC(=O)[C@H](CCCCN)NC(=O)[C@H](CO)NC(=O)[C@@H](N)CCCNC(=N)N)NC(=O)[C@H](CCCNC(=N)N)NC(=O)[C@H](Cc1ccc(O)cc1)NC(=O)[C@H](CC(C)C)NC(=O)[C@@H]1CCCN1C(=O)[C@H](CC(N)=O)NC(=O)[C@H](CCCCN)NC(=O)[C@H](C)NC(=O)[C@H](CCCCN)NC(=O)[C@H](CO)NC(=O)[C@@H](N)CCCNC(=N)N)NC(=O)[C@H](CCCCNC(=O)[C@H](CCCNC(=N)N)NC(=O)[C@H](Cc1ccc(O)cc1)NC(=O)[C@H](CC(C)C)NC(=O)[C@@H]1CCCN1C(=O)[C@H](CC(N)=O)NC(=O)[C@H](CCCCN)NC(=O)[C@H](C)NC(=O)[C@H](CCCCN)NC(=O)[C@H](CO)NC(=O)[C@@H](N)CCCNC(=N)N)NC(=O)[C@H](CCCNC(=N)N)NC(=O)[C@H](Cc1ccc(O)cc1)NC(=O)[C@H](CC(C)C)NC(=O)[C@@H]1CCCN1C(=O)[C@H](CC(N)=O)NC(=O)[C@H](CCCCN)NC(=O)[C@H](C)NC(=O)[C@H](CCCCN)NC(=O)[C@H](CO)NC(=O)[C@@H](N)CCCNC(=N)N)C(=O)NCCC(N)=O` [Dend 10-10(4)], the “PIK3 gamma % activity relative to control” value in experiment [12] was 11%.
